Data on six molecules can be found in article PMC3503517 (Chembiochem : a European journal of chemical biology, 2011).

As usually defined, the Km is the concentration of substrate that gives half-maximal velocity. For orientation: kcat means the maximal rate divided by the concentration of active sites. The term IC50 denotes the concentration that inhibits the measured activity by half. Usually stoichiometry N stands for the number of molecules, sites or subunits per partner or assembly.

For series [1], the target named is T1, human DCTPP1 (Homo sapiens, UniProt Q9H773).
T1 sequence (Q9H773 1-170): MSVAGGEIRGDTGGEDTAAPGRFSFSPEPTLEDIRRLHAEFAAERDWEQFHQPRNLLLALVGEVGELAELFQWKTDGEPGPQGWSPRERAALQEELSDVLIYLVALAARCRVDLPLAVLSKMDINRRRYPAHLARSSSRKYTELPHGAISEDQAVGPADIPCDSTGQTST
The class given is biochemical.

For series [2], the system named is HeLa cells. As to the kind of experiment: BrdC/BrdCTP incorporation into DNA detected with anti-BrdU antibody. The series is classed as cell-based, human. Particulars: one-hour treatment.
Series [3] has as its target T1, human DCTPP1. Particulars: ITC, 25°C, value ± SD. On the technique in general: ITC needs no label: the signal is the heat of the interaction.
In series [4] the test system is HeLa cells. The series can be described thus: Cytotoxicity. The series is classed as cell-based. Particulars: Homo sapiens, 48 h, read-out: IC50 (cell number).
Series [5] deals with the molecule itself. The series can be described thus: native gel or EMSA + SEC. On the technique in general: In EMSA bound probe runs differently from free probe, usually more slowly.

Read-outs that look alike come from different tables or passages of the source.

For the molecule `Nc1nc(=O)n([C@H]2C[C@H](O)[C@@H](COP(=O)(O)OP(=O)(O)OP(=O)(O)O)O2)cc1I` [5-I-dCTP], in series [1] (as substrate of DCTPP1), the Km came out at 239 µM and the turnover number (kcat) is 0.000864 s⁻¹. As to `Nc1nc(=O)n([C@H]2C[C@H](O)[C@@H](CO)O2)cc1Br` [BrdC], the “BrdU incorporation (fraction of anti-BrdU reactive cells)” value in series [2] is reported as 30–43 % of cells. Regarding `Nc1ccn([C@@H]2O[C@H](COP(=O)(O)OP(=O)(O)OP(=O)(O)O)[C@@H](O)C2(F)F)c(=O)n1` [gemcitabine triphosphate], in series [1] (kinetic assays, data not shown), the “activity as a DCTPP1 substrate” value was “did not show activity as a DCTPP1 substrate”. As to `CC(C)[C@]12O[C@H]1[C@@H]1O[C@]13[C@]1(O[C@H]1C[C@H]1C4=C(CC[C@@]13C)C(=O)OC4)[C@@H]2O` [compound 1, triptolide], the figures for the ΔH in series [3] and in series [3] (listed as triptolide) were -19.98 ± 1.70 kcal/mol and “–19.98 ± 1.70 kcal/mol”, respectively. Besides, the “n (binding stoichiometry)” value in series [3] (per DCTPP1 monomer) is on record as 0.601 ± 0.075. In addition, in series [4], the IC50 is 7 to 10 nM. For the molecule `Nc1nc(=O)n([C@H]2C[C@H](O)[C@@H](COP(=O)(O)OP(=O)(O)OP(=O)(O)O)O2)cc1Br` [BrdCTP], in series [2], the “BrdU incorporation (fraction of anti-BrdU reactive cells)” value was 30–43 % of cells.

B1: recombinant human dCTP pyrophosphatase 1 (DCTPP1), GST tag cleaved off (enzyme, UniProt Q9H773 1-170, looked up)
chain: T1 sequence (Q9H773 1-170)
On to B1, for which, in series [5], the “stoichiometry N” value stood at 2.
